Laboratory results as given in patent publication US10881099B2, “Process to improve crop yield” (priority 2016, dated 2021).

Experiments:
[1] = system: mixture of four Colletotrichum acutatum isolates, two sensitive and two resistant to QoI fungicides; experiment: Example 3: dip treatments on Florida Radiance transplants for control of Colletotrichum acutatum; assay type: in vivo; details: cv. Florida Radiance; for Plant diameter / Plant diameter compared to the non-treated control (in words): 35 DAP; for Yield (marketable fruit): seven harvests
[2] = system: fungi within the Ascomycota (e.g. Botrytis and Colletotrichum spp.) and Zygomycota (e.g. Rhizopus stolonifer); details: for most of these organisms; cited from earlier work
[3] = system: anthracnose (Colletotrichum acutatum), naturally infected plants; experiment: Example 2: pre-plant dip of naturally infected strawberry plants (Nursery 2), field trial; assay type: in vivo; details: cv. Portola (Nursery 2); for DI: Disease incidence (average) / DS: Disease severity, by ranking (average) 0-4 / LSI: Leaf spot incidence (average): after four weeks; for W: Weight (average) / Y: Yield (average): after six weeks
[4] = system: azoxystrobin (QoI)-sensitive (S) strains of Colletotrichum acutatum; experiment: Example 2: pre-plant dip of strawberry plants inoculated with azoxystrobin-sensitive isolate, field trial; assay type: in vivo; details: for DI: Disease incidence (average) / DS: Disease severity, by ranking (average) 0-4: after four weeks; for W: Weight (average) / Y: Yield (average): after six weeks
[5] = system: strawberry plants (two plant cultivars); details: in vivo
Procedure: Plants were evaluated periodically for disease and phytotoxicity over the course of the trial. As plants develop disease symptoms, fungal isolations were done from diseased tissue to validate the symptoms as anthracnose. For this, pieces of crown and leaf tissues from the margins between diseased and healthy tissue were surface-sterilized with sodium hypochlorite and rinsed with sterile, distilled water. A small sample of this plant tissue was removed, cut into pieces, and plated onto 10-cm potato dextrose agar media plates amended with ampicillin and rifampicin to inhibit bacterial growth. Plates were incubated for 5-6 days at 25° C., and fungal colonies were identified using morphological characteristics. A subset of fungal colonies was confirmed by PCR using species-specific primers for Colletotrichum acutatum (Förster and Adaskaveg, Phytopathology (1999) 89 1056-1065).

Colletotrichum acutatum = experiment: Example 1: pre-plant dip of cv. Portola baby strawberry plants with natamycin, fruit yield after 6 weeks; assay type: in vivo
Procedure: Baby strawberry plants of cv. Portola were either inoculated or non-inoculated (naturally infected). Inoculation was done by dipping plants for 4 minutes in conidial suspensions of Colletotrichum acutatum, and then drip-dried. Plants were then stored for 8 h at 20° C., or 3 days at 5° C. […] The plants were then planted in different rows for each treatment, one feet apart and the yield was evaluated for fruit yield after 6 weeks. See below Table 1 for results.

[6] = system: azoxystrobin (QoI)-resistant (R) strains of Colletotrichum acutatum; experiment: Example 2: pre-plant dip of strawberry plants inoculated with azoxystrobin-resistant isolate, field trial; assay type: in vivo; details: for DI: Disease incidence (average) / DS: Disease severity, by ranking (average) 0-4: after four weeks; for W: Weight (average) / Y: Yield (average): after six weeks
[7] = natamycin 26.6 fl. oz./100 gal. (dipped in the field)
[8] = natamycin 26.6 fl. oz./100 gal. (dipped indoors to avoid sunlight)
[9] = natamycin 13.3 oz. per 150 gal.
[10] = natamycin 26.6 oz. per 150 gal.
[11] = cv. Fronteras (Nursery 1), natamycin 13.3 oz. per 150 gal.
[12] = cv. Fronteras (Nursery 1), natamycin 26.6 oz. per 150 gal.
[13] = cv. Portola (Nursery 1), natamycin 13.3 oz. per 150 gal.
[14] = cv. Portola (Nursery 1), natamycin 26.6 oz. per 150 gal.
[15] = 4 min dip, rates/150 gal: Actinovate 24 oz., azoxystrobin 8 fl. oz., Bravo 24 fl. oz., Switch 8 oz.
[16] = rates/150 gal: Actinovate 24 oz., azoxystrobin 8 fl. oz., Bravo 24 fl. oz., Switch 8 oz.
[17] = cv. Fronteras (Nursery 1), 4 min dip, rates/150 gal: Actinovate 24 oz., azoxystrobin 8 fl. oz., Bravo 24 fl. oz., Switch 8 oz.
[18] = cv. Fronteras (Nursery 1), rates/150 gal: Actinovate 24 oz., azoxystrobin 8 fl. oz., Bravo 24 fl. oz., Switch 8 oz.
[19] = cv. Portola (Nursery 1), 4 min dip, rates/150 gal: Actinovate 24 oz., azoxystrobin 8 fl. oz., Bravo 24 fl. oz., Switch 8 oz.
[20] = cv. Portola (Nursery 1), rates/150 gal: Actinovate 24 oz., azoxystrobin 8 fl. oz., Bravo 24 fl. oz., Switch 8 oz.

Which Plant diameter [1, 7] does the source give for `C[C@@H]1C/C=C/C=C/C=C/C=C/[C@H](O[C@@H]2O[C@H](C)[C@@H](O)[C@H](N)[C@@H]2O)C[C@@H]2O[C@](O)(C[C@@H](O)C[C@H]3O[C@@H]3/C=C/C(=O)O1)C[C@H](O)[C@H]2C(=O)O` [Natamycin, natamycin] here?
The Plant diameter was 5.7 bcd in.

And the Plant diameter [1, 8]?
Its Plant diameter is 5.9 abc in.

What about the “Plant diameter compared to the non-treated control (in words)” value ([1]; natamycin dipped in the field: excepted from the treatments that significantly increased plant diameter) of the same compound?
The value was “With the exception of natamycin (dipped in the field)”.

And the “Plant diameter compared to the non-treated control (in words)” value ([1]; natamycin: treatment dipped indoors)?
The value was “significantly increased plant diameter”.

What about the “Disease incidence (diseased plants, dead+wilted)” value ([1]; 42 DAP, natamycin 26.6 fl. oz./100 gal. (dipped in the field)) of the same compound?
The value was 2.5 de %.

And the “Disease incidence (diseased plants, dead+wilted)” value ([1]; 42 DAP, natamycin 26.6 fl. oz./100 gal. (dipped indoors to avoid sunlight))?
The value was 0.0 e %.

What about the “Disease incidence (diseased plants, dead+wilted)” value ([1]; 42 DAP, natamycin 26.6 fl. oz./100 gal. (dipped indoors to avoid sunlight), listed as natamycin) of the same compound?
The value was 0.0%.

And the “Disease incidence compared to the non-treated control (in words)” value ([1]; 42 DAP, natamycin: both treatments (field and indoors))?
The value was “reduced disease incidence compared to the non-treated control”.

And the “Yield compared to the non-treated control (in words)” value ([1]; natamycin: dipped in the field)?
Its value is “higher yields than the non-treated control”.

What about the “Yield (marketable fruit)” value [1, 7] of the same compound?
The value was 2924 abc lb./A.

And the “Yield (marketable fruit)” value [1, 8]?
The value was 2547 bcde lb./A.

And the minimum inhibitory concentration [2]?
The minimum inhibitory concentration was less than 10 ppm.

And the “DI: Disease incidence (average)” value [3, 9]?
Its value is 57.5%.

What about the “DS: Disease severity, by ranking (average) 0-4” value (shortened to “DS: Disease severity, by ranking”) [3, 9] of the same compound?
Its value is 0.9.

What about the “LSI: Leaf spot incidence (average)” value [3, 9] of the same compound?
Its value is 0.6 number of spots.

What about the “DI: Disease incidence (average)” value [3, 10] of the same compound?
The value was 53.7%.

And the “DS: Disease severity, by ranking” value [3, 10]?
Its value is 0.7.

And the “LSI: Leaf spot incidence (average)” value [3, 10]?
The value was 0.4 number of spots.

And the “W: Weight (average)” value [3, 9]?
Its value is 8.7 g per fruit.

And the “Y: Yield (average)” value [3, 9]?
Its value is 714.4 g per treated plot.

And the “W: Weight (average)” value [3, 10]?
Its value is 8.7 g per fruit.

And the “Y: Yield (average)” value [3, 10]?
The value was 742.5 g per treated plot.

What about the “DI: Disease incidence (average)” value [4, 11] of the same compound?
The value was 37.5%.

What about the “DS: Disease severity, by ranking” value [4, 11] of the same compound?
Its value is 0.8.

What about the “DI: Disease incidence (average)” value [4, 12] of the same compound?
Its value is 32.5%.

And the “DS: Disease severity, by ranking” value [4, 12]?
Its value is 0.6.

And the “W: Weight (average)” value [4, 11]?
Its value is 8.14 g per fruit.

What about the “Y: Yield (average)” value [4, 11] of the same compound?
Its value is 161.8 g per treated plot.

And the “W: Weight (average)” value [4, 12]?
The value was 8.31 g per fruit.

What about the “Y: Yield (average)” value [4, 12] of the same compound?
Its value is 161.1 g per treated plot.

What about the “DI: Disease incidence (average)” value [4, 13] of the same compound?
Its value is 32.5%.

And the “DS: Disease severity, by ranking” value [4, 13]?
Its value is 0.8.

What about the “DI: Disease incidence (average)” value [4, 14] of the same compound?
The value was 27.5%.

And the “DS: Disease severity, by ranking” value [4, 14]?
Its value is 0.4.

And the “W: Weight (average)” value [4, 13]?
The value was 7.9 g per fruit.

And the “Y: Yield (average)” value [4, 13]?
The value was 224.1 g per treated plot.

What about the “W: Weight (average)” value [4, 14] of the same compound?
The value was 7.0 g per fruit.

What about the “Y: Yield (average)” value [4, 14] of the same compound?
Its value is 188.4 g per treated plot.

What about the phytotoxicity [5] of the same compound?
The phytotoxicity was “no phytotoxicity is observed”.

What about the “Average weight per individual strawberry” value (Colletotrichum acutatum; natamycin 13.3 oz./150 gallon) of the same compound?
Its value is 8.7 g.

And the “Average weight per individual strawberry” value (Colletotrichum acutatum; natamycin 26.6 oz./150 gallon)?
The value was 8.7 g.

What about the “DI: Disease incidence (average)” value [6, 11] of the same compound?
The value was 37.5%.

And the “DS: Disease severity, by ranking” value [6, 11]?
The value was 0.8.

What about the “DI: Disease incidence (average)” value [6, 12] of the same compound?
The value was 54.2%.

What about the “DS: Disease severity, by ranking” value [6, 12] of the same compound?
The value was 1.3.

And the “W: Weight (average)” value [6, 11]?
The value was 8.9 g per fruit.

And the “Y: Yield (average)” value [6, 11]?
Its value is 261.7 g per treated plot.

And the “W: Weight (average)” value [6, 12]?
Its value is 9.3 g per fruit.

And the “Y: Yield (average)” value [6, 12]?
Its value is 145.2 g per treated plot.

And the “DI: Disease incidence (average)” value [6, 13]?
Its value is 82.5%.

And the “DS: Disease severity, by ranking” value [6, 13]?
Its value is 2.2.

What about the “DI: Disease incidence (average)” value [6, 14] of the same compound?
The value was 29.4%.

What about the “DS: Disease severity, by ranking” value [6, 14] of the same compound?
The value was 0.4.

What about the “W: Weight (average)” value [6, 13] of the same compound?
The value was 7.9 g per fruit.

And the “Y: Yield (average)” value [6, 13]?
Its value is 112.4 g per treated plot.

And the “W: Weight (average)” value [6, 14]?
The value was 8.6 g per fruit.

And the “Y: Yield (average)” value [6, 14]?
Its value is 235.0 g per treated plot.

What about the “efficacy when plants are inoculated with azoxystrobin-resistant isolates (in words)” value ([6]; pre-plant dip) of the same compound?
The value was “very effective”.

Which “DI: Disease incidence (average)” value [3, 15] does the source give for `CO/C=C(/C(=O)OC)c1ccccc1Oc1cc(Oc2ccccc2C#N)ncn1` [Azoxystrobin] here?
Its value is 41.7%.

And the “DS: Disease severity, by ranking” value [3, 15]?
Its value is 0.5.

And the “LSI: Leaf spot incidence (average)” value [3, 15]?
The value was 0.5 number of spots.

And the “W: Weight (average)” value [3, 16]?
The value was 9.8 g per fruit.

What about the “Y: Yield (average)” value [3, 16] of the same compound?
The value was 1114.8 g per treated plot.

And the “DI: Disease incidence (average)” value [4, 17]?
Its value is 7.5%.

And the “DS: Disease severity, by ranking” value [4, 17]?
Its value is 0.2.

What about the “W: Weight (average)” value [4, 18] of the same compound?
The value was 10.68 g per fruit.

And the “Y: Yield (average)” value [4, 18]?
Its value is 378.1 g per treated plot.

What about the “DI: Disease incidence (average)” value [4, 19] of the same compound?
Its value is 33.1%.

And the “DS: Disease severity, by ranking” value [4, 19]?
Its value is 0.8.

And the “W: Weight (average)” value [4, 20]?
Its value is 6.4 g per fruit.

And the “Y: Yield (average)” value [4, 20]?
The value was 157.7 g per treated plot.

And the “DI: Disease incidence (average)” value [6, 17]?
The value was 100.0%.

And the “DS: Disease severity, by ranking” value [6, 17]?
The value was 2.9.

And the “W: Weight (average)” value [6, 18]?
The value was 7.9 g per fruit.

What about the “Y: Yield (average)” value [6, 18] of the same compound?
Its value is 16.4 g per treated plot.

And the “DI: Disease incidence (average)” value [6, 19]?
Its value is 100.0%.

What about the “DS: Disease severity, by ranking” value [6, 19] of the same compound?
Its value is 4.0.

And the “W: Weight (average)” value [6, 20]?
The value was 0.0 g per fruit.

What about the “Y: Yield (average)” value [6, 20] of the same compound?
The value was 0.0 g per treated plot.
